Active and inactive are the calls of the source. The rule behind the calls is not given here.
How the values were obtained:
Monocyte [1] = assay: Induction of superoxide anion production in human monocytes assessed as increase in reduced cytochrome C level at 0.0025 to 1 uM incubated for 1 hr; type: functional, cell-based; conditions: dose 0.0025-1 µM
Monocyte [2] = assay: Cytotoxicity against human monocytes assessed as reduction in cell viability at 0.01 to 10 uM incubated for 1 to 6 hrs by MTT assay; type: toxicity, cell-based; conditions: dose lower 0.01 µM, time lower 1 hrs, dose upper 10 µM, time upper 6 hrs
Monocyte [3] = assay: Modulation of LPS-induced IL-10 mRNA expression in human monocytes at 1 uM preincubated for 1 hr followed by LPS stimulation and measured after 30 mins by RT-PCR analysis; type: functional, cell-based; conditions: time 1.5 hrs
Monocyte [4] = assay: Induction of TNF-alpha mRNA expression in human monocytes at 1 uM incubated for 1 hr by RT-PCR analysis; type: functional, cell-based
Monocyte [5] = assay: Modulation of LPS-induced IL-6 mRNA expression in human monocytes at 1 uM preincubated for 1 hr followed by LPS stimulation and measured after 30 mins by RT-PCR analysis; type: functional, cell-based; conditions: time 1.5 hrs
Monocyte [6] = assay: Induction of IL-6 mRNA expression in human monocytes at 1 uM incubated for 1 hr by RT-PCR analysis; type: functional, cell-based
Monocyte [7] = assay: Modulation of LPS-induced IL-1beta mRNA expression in human monocytes at 1 uM preincubated for 1 hr followed by LPS stimulation and measured after 30 mins by RT-PCR analysis; type: functional, cell-based; conditions: time 1.5 hrs
Monocyte [8] = assay: Induction of IL-10 mRNA expression in human monocytes at 1 uM incubated for 1 hr by RT-PCR analysis; type: functional, cell-based
Monocyte [9] = assay: Induction of IL-1beta mRNA expression in human monocytes at 1 uM incubated for 1 hr by RT-PCR analysis; type: functional, cell-based
Monocyte [10] = assay: Modulation of LPS-induced TNF-alpha mRNA expression in human monocytes at 1 uM preincubated for 1 hr followed by LPS stimulation and measured after 30 mins by RT-PCR analysis; type: functional, cell-based; conditions: time 1.5 hrs
Monocyte [11] = assay: Inhibition of PMA-induced oxidative burst in human monocytes at 0.1 to 50 nM preincubated for 1 hr followed by PMA stimulation and measured after 30 mins relative to control; type: functional; conditions: dose 0.1-50 nM, time 1.5 hrs
Monocyte [12] = assay: Induction of IL-6 mRNA expression in human monocytes at 7.5 nM incubated for 1 hr by RT-PCR analysis; type: functional, cell-based
[13] = biological target: Prostaglandin G/H synthase 1 (Homo sapiens) (UniProt P23219); assay: Inhibition of human COX-1 at 0.1 to 50 nM by spectrophotometer analysis; conditions: dose 0.1-50 nM
Chain of Prostaglandin G/H synthase 1 (Homo sapiens) (P23219 whole entry): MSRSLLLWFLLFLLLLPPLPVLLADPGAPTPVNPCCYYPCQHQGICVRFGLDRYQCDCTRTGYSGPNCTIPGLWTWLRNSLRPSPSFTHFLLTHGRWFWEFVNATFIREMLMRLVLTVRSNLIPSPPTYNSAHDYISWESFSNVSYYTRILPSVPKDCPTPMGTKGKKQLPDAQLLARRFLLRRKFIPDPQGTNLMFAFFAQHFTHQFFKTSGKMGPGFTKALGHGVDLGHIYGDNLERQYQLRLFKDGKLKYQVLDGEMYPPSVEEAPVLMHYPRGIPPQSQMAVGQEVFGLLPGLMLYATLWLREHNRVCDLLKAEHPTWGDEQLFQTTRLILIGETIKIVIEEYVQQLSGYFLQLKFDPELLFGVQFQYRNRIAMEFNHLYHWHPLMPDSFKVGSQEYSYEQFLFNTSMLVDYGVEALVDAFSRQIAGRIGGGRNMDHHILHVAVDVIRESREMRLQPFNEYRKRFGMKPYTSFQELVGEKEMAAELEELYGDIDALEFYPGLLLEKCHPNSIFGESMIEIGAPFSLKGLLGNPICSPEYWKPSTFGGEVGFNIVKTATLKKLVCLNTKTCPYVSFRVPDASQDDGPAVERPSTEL

Monocyte [14] = assay: Modulation of COX-1 mRNA expression in human monocytes at 7.5 nM incubated for 1 hr by RT-PCR analysis; type: functional, cell-based
Monocyte [15] = assay: Downregulation of PMA-induced IL-6 mRNA expression in human monocytes at 7.5 nM preincubated for 1 hr followed by PMA stimulation and measured after 30 mins by RT-PCR analysis; type: functional, cell-based; conditions: time 1.5 hrs
Monocyte [16] = assay: Modulation of LPS-induced IL-6 mRNA expression in human monocytes at 7.5 nM preincubated for 1 hr followed by LPS stimulation and measured after 30 mins by RT-PCR analysis; type: functional, cell-based; conditions: time 1.5 hrs
Monocyte [17] = assay: Modulation of LPS-induced TNF-alpha mRNA expression in human monocytes at 7.5 nM preincubated for 1 hr followed by LPS stimulation and measured after 30 mins by RT-PCR analysis; type: functional, cell-based; conditions: time 1.5 hrs
Monocyte [18] = assay: Induction of TNF-alpha mRNA expression in human monocytes at 7.5 nM incubated for 1 hr by RT-PCR analysis; type: functional, cell-based
Monocyte [19] = assay: Modulation of LPS-induced IL-10 mRNA expression in human monocytes at 7.5 nM preincubated for 1 hr followed by LPS stimulation and measured after 30 mins by RT-PCR analysis; type: functional, cell-based; conditions: time 1.5 hrs
Monocyte [20] = assay: Inhibition of PMA-induced oxidative burst in human monocytes preincubated for 1 hr followed by PMA stimulation and measured after 30 mins; type: functional, cell-based
Monocyte [21] = assay: Induction of IL-10 mRNA expression in human monocytes at 7.5 nM incubated for 1 hr by RT-PCR analysis; type: functional, cell-based
Monocyte [22] = assay: Inhibition of PMA-induced COX-2 expression in human monocytes at 7.5 nM preincubated for 1 hr followed by PMA stimulation and measured after 30 mins by RT-PCR analysis; type: functional, cell-based; conditions: time 1.5 hrs
Monocyte [23] = assay: Induction of IL-1beta mRNA expression in human monocytes at 7.5 nM incubated for 1 hr by RT-PCR analysis; type: functional, cell-based
Monocyte [24] = assay: Modulation of LPS-induced IL-1beta mRNA expression in human monocytes at 7.5 nM preincubated for 1 hr followed by LPS stimulation and measured after 30 mins by RT-PCR analysis; type: functional, cell-based; conditions: time 1.5 hrs
[25] = biological target: T1, Prostaglandin G/H synthase 2 (Homo sapiens) (UniProt P35354); conditions: dose 0.1-50 nM
T1 sequence (whole entry): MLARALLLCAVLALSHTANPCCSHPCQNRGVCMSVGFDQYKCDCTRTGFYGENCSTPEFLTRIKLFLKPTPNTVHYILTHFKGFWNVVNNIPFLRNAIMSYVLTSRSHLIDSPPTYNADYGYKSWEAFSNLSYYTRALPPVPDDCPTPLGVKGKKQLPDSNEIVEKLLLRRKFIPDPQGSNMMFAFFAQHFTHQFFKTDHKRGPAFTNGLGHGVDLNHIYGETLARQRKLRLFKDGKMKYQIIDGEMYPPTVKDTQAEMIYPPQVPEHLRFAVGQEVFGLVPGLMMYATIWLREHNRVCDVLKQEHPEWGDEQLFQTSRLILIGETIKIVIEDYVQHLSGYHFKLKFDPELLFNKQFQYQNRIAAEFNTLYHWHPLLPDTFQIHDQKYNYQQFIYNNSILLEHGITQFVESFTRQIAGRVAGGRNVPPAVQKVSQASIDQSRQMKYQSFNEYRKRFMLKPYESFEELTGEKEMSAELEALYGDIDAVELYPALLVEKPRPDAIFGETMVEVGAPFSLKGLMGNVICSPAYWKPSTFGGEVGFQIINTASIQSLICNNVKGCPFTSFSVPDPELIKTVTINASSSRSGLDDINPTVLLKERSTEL
Description: Inhibition of human COX-2 at 0.1 to 50 nM by spectrophotometer analysis

Monocyte [26] = assay: Inhibition of PMA-induced IL-1beta mRNA expression in human monocytes at 7.5 nM preincubated for 1 hr followed by PMA stimulation and measured after 30 mins by RT-PCR analysis; type: functional, cell-based; conditions: time 1.5 hrs
Monocyte [27] = assay: Downregulation of PMA-induced TNF-alpha mRNA expression in human monocytes at 7.5 nM preincubated for 1 hr followed by PMA stimulation and measured after 30 mins by RT-PCR analysis; type: functional, cell-based; conditions: time 1.5 hrs

inhibition [13]	IC50 (Monocyte [20])	SMILES	Activity (Monocyte [1])	Activity (Monocyte [2])	inhibition (INH) (Monocyte [11])	Activity (Monocyte [12])	Activity (Monocyte [14])	Activity (Monocyte [16])	Activity (Monocyte [17])	Activity (Monocyte [18])	Activity (Monocyte [19])	Activity (Monocyte [21])	Activity (Monocyte [23])	Activity (Monocyte [24])	further results
–	–	Cc1ccc(Sc2ccccc2N2CCN(S(C)(=O)=O)CC2)c(C)c1	inactive	Non-Toxic	–	–	–	–	–	–	–	–	–	–	–
–	–	COc1ccc2c(c1)c(CC(=O)O)c(C)n2C(=O)c1ccc(Cl)cc1	–	–	–	–	–	–	–	–	–	–	–	–	Activity (Monocyte [3]): inactive; Activity (Monocyte [4]): inactive; Activity (Monocyte [5]): inactive; Activity (Monocyte [6]): inactive; Activity (Monocyte [7]): inactive; Activity (Monocyte [8]): inactive; Activity (Monocyte [9]): inactive; Activity (Monocyte [10]): inactive
–	–	Cc1ccc(Sc2ccccc2N2CCN(CCO)CC2)c(C)c1	inactive	Non-Toxic	–	–	–	–	–	–	–	–	–	–	–
Active	6.5 nM	Cc1ccc(Sc2ccccc2N2CCN(Cc3ccccc3F)CC2)c(C)c1	inactive	Non-Toxic	70%	inactive	inactive	inactive	inactive	inactive	Active	inactive	inactive	inactive	Activity (Monocyte [15]): Active; inhibition (Monocyte [22]): Active; inhibition [25]: Active
–	–	CC(=O)N1CCN(c2ccccc2Sc2ccc(C)cc2C)CC1	inactive	Non-Toxic	–	–	–	–	–	–	–	–	–	–	–
–	–	Cc1ccc(S(=O)(=O)N2CCN(c3ccccc3Sc3ccc(C)cc3C)CC2)cc1	inactive	Non-Toxic	–	–	–	–	–	–	–	–	–	–	–
–	2.9 nM	Cc1ccc(Sc2ccccc2N2CCNCC2)c(C)c1 [VORTIOXETINE]	inactive	Non-Toxic	90%	inactive	inactive	inactive	inactive	inactive	inactive	inactive	inactive	inactive	inhibition (Monocyte [26]): Active; Activity (Monocyte [27]): Active
Active	2.7 nM	Cc1ccc(Sc2ccccc2N2CCN(CC3CCCC3)CC2)c(C)c1	inactive	Non-Toxic	70%	inactive	inactive	inactive	inactive	inactive	inactive	inactive	inactive	inactive	inhibition [25]: Active
Active	6.3 nM	Cc1ccc(Sc2ccccc2N2CCN(Cc3ccccc3C(F)(F)F)CC2)c(C)c1	inactive	Non-Toxic	80%	inactive	inactive	inactive	inactive	inactive	inactive	inactive	inactive	inactive	–
Active	0.35 nM	Cc1ccc(Sc2ccccc2N2CCN(CC(=O)O)CC2)c(C)c1	inactive	Non-Toxic	90%	inactive	inactive	inactive	inactive	inactive	inactive	Active	inactive	inactive	–
–	–	CCN1CCN(c2ccccc2Sc2ccc(C)cc2C)CC1	inactive	Non-Toxic	–	–	–	–	–	–	–	–	–	–	–
–	–	Cc1ccc(Sc2ccccc2N2CCN(Cc3ccc(Cl)cc3)CC2)c(C)c1	inactive	Non-Toxic	–	–	–	–	–	–	–	–	–	–	–
–	–	CS(=O)(=O)c1ccc(C2=C(c3ccccc3)C(=O)OC2)cc1	–	–	–	–	–	–	–	–	–	–	–	–	Activity (Monocyte [3]): inactive; Activity (Monocyte [4]): inactive; Activity (Monocyte [5]): inactive; Activity (Monocyte [6]): inactive; Activity (Monocyte [7]): inactive; Activity (Monocyte [8]): inactive; Activity (Monocyte [9]): inactive; Activity (Monocyte [10]): inactive; inhibition [25]: Active

From ChEMBL document CHEMBL5223069, “Design, synthesis and biological evaluation of vortioxetine derivatives as new COX-1/2 inhibitors in human monocytes” (Bioorg Med Chem, 2020)
